{"source": "patent US10993935B2", "about": "“Compositions and methods for treatment of lung infections” (priority 2018, dated 2021)", "key": {"[1]": {"tested_on": "P. aeruginosa PAO581 (PAO1mucA25)", "assay": "NIH drug library screen for inhibition of growth, mucoidy and PalgD-lacZ colour", "assay_type": "cell-based, Pseudomonas aeruginosa", "conditions": "for Growth 10 μM / Mucoidy 10 μM / Color 10 μM: drug at 10 μM; for Growth 10 μM / Growth 50 μM / Growth 2 μM: PAO581 on PIA; for Mucoidy 10 μM / Mucoidy 50 μM / Mucoidy 2 μM: PAO581 with pLP170-PalgD-lacZ on PIA + X-gal; for Color 10 μM / Color 50 μM / Color 2 μM: X-gal colour of PalgD-lacZ reporter, 'Light' wraps to 'Light Blue'; for Growth 50 μM / Mucoidy 50 μM / Color 50 μM: drug at 50 μM; for Growth 2 μM / Mucoidy 2 μM / Color 2 μM: drug at 2 μM"}, "[2]": {"assay": "Adverse effects after nebulization in mice", "assay_type": "in vivo, C57BL/6 mice", "conditions": "single nebulized dose of 5 ml of 100% DMSO; C57BL/6 mice (n=8)", "method": "Drug Nebulization. C57BL/6 mice (n=8) were first exposed to 5 mL DMSO for 10 minutes to determine any adverse effects that may occur from using DMSO. Mice (n=16) were then exposed to TOB in 0.225% saline or RFX in DMSO via nebulization until the 5 mL drug mixture was depleted—typically 10-15 minutes. Nebulization was conducted using the pressure-based nebulizer and chamber purchased from Kent Scientific (Torrington, Conn.). TOB was nebulized at concentrations of 100 mg (n=4) or 400 mg (n=4) in 5 mL of 0.225% saline. RFX was nebulized at concentrations of 100 mg (n=4) or 400 mg (n=4) in 5 ml of 100% dimethyl sulfoxide. Mice were sacrificed immediately after nebulization via CO2 chamber. Lungs were then collected and homogenized. TOB concentrations were measured using ELISA. RFX concentrations were measured via HPLC.\nThe potential adverse effects of using DMSO were first assessed by nebulizing DMSO alone to a group of C57BL/6 mice (n=8). This type of mice was used due to their natural resistance against infection based on our previous studies. […] To determine the dosage of each drug received by the mice, the lungs were homogenized and drug concentrations of TOB and RFX were determined via ELISA and HPLC, respectively. […] The droplet size for both TOB and RFX were determined to be identical with the average droplet size for TOB and RFX being 5.07 μm and 5.02 μm, respectively. […]"}}, "note": "Where a name gives a salt, the structure may show the parent alone.", "data": [{"smiles": "CCCCCCCCCOc1ccc2[nH]cc(CCN)c2c1", "note": "[5-Nonyloxyltryptamine]", "values": [{"measurement": "Growth 10 μM", "setting": "[1]", "result": "Yes"}, {"measurement": "Mucoidy 10 μM", "setting": "[1]", "result": "High"}, {"measurement": "Color 10 μM", "setting": "[1]", "result": "Blue"}, {"measurement": "Growth 50 μM", "setting": "[1]", "result": "Reduced"}, {"measurement": "Mucoidy 50 μM", "setting": "[1]", "result": "High"}, {"measurement": "Color 50 μM", "setting": "[1]", "result": "Blue"}]}, {"smiles": "CCCCCCNC(=O)n1cc(F)c(=O)[nH]c1=O", "note": "[Carmofur]", "values": [{"measurement": "Growth 2 μM", "setting": "[1]", "result": "Yes"}, {"measurement": "Mucoidy 2 μM", "setting": "[1]", "result": "High"}, {"measurement": "Color 2 μM", "setting": "[1]", "result": "Light"}, {"measurement": "Growth 10 μM", "setting": "[1]", "result": "Reduced"}, {"measurement": "Mucoidy 10 μM", "setting": "[1]", "result": "Inhibited"}, {"measurement": "Color 10 μM", "setting": "[1]", "result": "Clear"}, {"measurement": "Growth 50 μM", "setting": "[1]", "result": "Reduced"}, {"measurement": "Mucoidy 50 μM", "setting": "[1]", "result": "Inhibited"}, {"measurement": "Color 50 μM", "setting": "[1]", "result": "Clear"}]}, {"smiles": "CC[C@H]1OC(=O)[C@H](C)[C@@H](O[C@H]2C[C@@](C)(OC)[C@@H](O)[C@H](C)O2)[C@H](C)[C@@H](O[C@@H]2O[C@H](C)C[C@H](N(C)C)[C@H]2O)[C@](C)(OC)C[C@@H](C)C(=O)[C@H](C)[C@@H](O)[C@]1(C)O", "note": "[Clarithromycin]", "values": [{"measurement": "Growth 2 μM", "setting": "[1]", "result": "Yes"}, {"measurement": "Mucoidy 2 μM", "setting": "[1]", "result": "High"}, {"measurement": "Color 2 μM", "setting": "[1]", "result": "Blue"}, {"measurement": "Growth 10 μM", "setting": "[1]", "result": "Reduced"}, {"measurement": "Mucoidy 10 μM", "setting": "[1]", "result": "High"}, {"measurement": "Color 10 μM", "setting": "[1]", "result": "Blue"}, {"measurement": "Growth 50 μM", "setting": "[1]", "result": "Yes"}, {"measurement": "Mucoidy 50 μM", "setting": "[1]", "result": "Inhibited"}, {"measurement": "Color 50 μM", "setting": "[1]", "result": "Light"}]}, {"smiles": "C[S+](C)[O-]", "note": "[DMSO, dimethyl sulfoxide]", "values": [{"measurement": "adverse effects", "setting": "[2]", "result": "no adverse effects"}]}, {"smiles": "CCN1CCN(c2cc3c(cc2F)c(=O)c(C(=O)O)cn3C2CC2)CC1", "note": "[Enrofloxacin]", "values": [{"measurement": "Growth 2 μM", "setting": "[1]", "result": "Inhibited"}, {"measurement": "Growth 10 μM", "setting": "[1]", "result": "Inhibited"}, {"measurement": "Growth 50 μM", "setting": "[1]", "result": "Inhibited"}]}, {"smiles": "COc1c(N2C[C@@H]3CCCN[C@@H]3C2)c(F)cc2c(=O)c(C(=O)O)cn(C3CC3)c12", "note": "[Moxifloxacin Hydrochloride]", "values": [{"measurement": "Growth 2 μM", "setting": "[1]", "result": "Reduced"}, {"measurement": "Mucoidy 2 μM", "setting": "[1]", "result": "Reduced"}, {"measurement": "Color 2 μM", "setting": "[1]", "result": "Light"}, {"measurement": "Growth 10 μM", "setting": "[1]", "result": "Inhibited"}, {"measurement": "Growth 50 μM", "setting": "[1]", "result": "Inhibited"}]}, {"smiles": "C[C@H]1COc2c(C3(N)CC3)c(F)cc3c(=O)c(C(=O)O)cn1c23", "note": "[Pazufloxacin]", "values": [{"measurement": "Growth 2 μM", "setting": "[1]", "result": "Inhibited"}, {"measurement": "Growth 10 μM", "setting": "[1]", "result": "Inhibited"}, {"measurement": "Growth 50 μM", "setting": "[1]", "result": "Inhibited"}]}, {"smiles": "CO[C@H]1/C=C/O[C@@]2(C)Oc3c(C)c(O)c4c(c3C2=O)C2=NC3(CCN(CC(C)C)CC3)NC2=C(NC(=O)/C(C)=C\\C=C\\[C@H](C)[C@H](O)[C@@H](C)[C@@H](O)[C@@H](C)[C@H](OC(C)=O)[C@@H]1C)C4=O", "note": "[Rifabutin]", "values": [{"measurement": "Growth 2 μM", "setting": "[1]", "result": "Reduced"}, {"measurement": "Mucoidy 2 μM", "setting": "[1]", "result": "High"}, {"measurement": "Color 2 μM", "setting": "[1]", "result": "Light"}, {"measurement": "Growth 10 μM", "setting": "[1]", "result": "Inhibited"}, {"measurement": "Growth 50 μM", "setting": "[1]", "result": "Inhibited"}]}, {"smiles": "CO[C@H]1/C=C/O[C@@]2(C)Oc3c(C)c(O)c4c(O)c(c(/C=N/N5CCN(C6CCCC6)CC5)c(O)c4c3C2=O)NC(=O)/C(C)=C\\C=C\\[C@H](C)[C@H](O)[C@@H](C)[C@@H](O)[C@@H](C)[C@H](OC(C)=O)[C@@H]1C", "note": "[Rifapentine]", "values": [{"measurement": "Growth 2 μM", "setting": "[1]", "result": "Yes"}, {"measurement": "Mucoidy 2 μM", "setting": "[1]", "result": "High"}, {"measurement": "Color 2 μM", "setting": "[1]", "result": "Blue"}, {"measurement": "Growth 10 μM", "setting": "[1]", "result": "Reduced"}, {"measurement": "Mucoidy 10 μM", "setting": "[1]", "result": "Reduced"}, {"measurement": "Color 10 μM", "setting": "[1]", "result": "Light"}, {"measurement": "Growth 50 μM", "setting": "[1]", "result": "Inhibited"}]}, {"smiles": "CN1CCN(c2c(F)cc3c(=O)c(C(=O)O)cn4c3c2SCC4)CC1", "note": "[Rufloxacin Monohydrate]", "values": [{"measurement": "Growth 10 μM", "setting": "[1]", "result": "Yes"}, {"measurement": "Mucoidy 10 μM", "setting": "[1]", "result": "High"}, {"measurement": "Color 10 μM", "setting": "[1]", "result": "Blue"}, {"measurement": "Growth 50 μM", "setting": "[1]", "result": "Yes"}, {"measurement": "Mucoidy 50 μM", "setting": "[1]", "result": "Inhibited"}, {"measurement": "Color 50 μM", "setting": "[1]", "result": "Light"}]}, {"smiles": "NC1CCN(c2nc3c(cc2F)c(=O)c(C(=O)O)cn3-c2ccc(F)cc2F)C1", "note": "(stereo not drawn) [Tosufloxacin Tosilate]", "values": [{"measurement": "Growth 2 μM", "setting": "[1]", "result": "Inhibited"}, {"measurement": "Growth 10 μM", "setting": "[1]", "result": "Inhibited"}, {"measurement": "Growth 50 μM", "setting": "[1]", "result": "Inhibited"}]}]}
